Measurements taken from publication PMC3226828 (Journal of medicinal chemistry, 2011).

Columns and labels:
[1] = tested on: haloperidol-induced catalepsy; test: reversal of haloperidol-induced catalepsy; assay type: in vivo; conditions: rat, p.o., haloperidol 0.75 mg/kg, 30 min, vs vehicle control
mGlu1,2,3 = conditions: 10 point concentration-response prior to EC20 agonist
[2] = rat in vivo pharmacokinetics, IV and PO; conditions: for CL / clearance: IV 1 mg/kg, hydrochloride, 10% EtOH, 80% PEG-400, 10% saline; for clearance: CL
[3] = tested on: 68 GPCRs, ion channels and transporters; test: Ricerca Lead Profiling Screen; assay type: binding; conditions: 10 µM; all 68 assays
[4] = IV cassette pharmacokinetics in beagle dog; conditions: in vivo
[5] = IV cassette pharmacokinetics in rhesus monkey; conditions: in vivo
[6] = previously reported tool compounds; cited from earlier work
[7] = previously reported tool compounds; cited from earlier work; remark: listed apart in the source
[8] = disclosed mGlu4 PAMs; cited from earlier work

With `O=C(Nc1ccc(N2C(=O)[C@@H]3[C@H](C2=O)[C@@H]2C=C[C@H]3C2)c(Cl)c1)c1ccccn1` [15f] the “reversal of haloperidol-induced catalepsy” value [1] was “produced a reversal of haloperidol-induced catalepsy”, the “reversal of haloperidol-induced catalepsy” value ([1]; listed as ML182) was “orally active” and the “activity at mGlu 1, 2, 3” value (mGlu1,2,3) was “inactive”. The CL ([2]; 1 mg/kg) was 36.9 mL/min/kg, the MRT ([2]; in vivo, iv, 1 mg/kg) was 8.22 h and the Vd ([2]; in vivo, iv, 1 mg/kg) was 18 L/kg. It also gave a half-life ([2]; in vivo, iv, 1 mg/kg) of 0.673 h, a clearance ([2]; in vivo, iv, 1 mg/kg) of 37 mL/min/kg and an AUC(0-t) ([2]; in vivo, po, 10 mg/kg) of 4350 ng·h/mL. The “inhibition of radioligand binding” value [3] was at most 50%.
In the case of `O=C(Nc1ccc(N2C(=O)CC(c3ccccc3)C2=O)c(Cl)c1)c1ccccn1` (centres unmarked) [15k, N-(3-Chloro-4-(2,5-dioxo-3-phenylpyrrolidin-1-yl)phenyl)picolinamide], the clearance [4] is reported as 7 mL/min/kg, the MRT ([2]; in vivo, iv, 1 mg/kg) is reported as 1.82 h and the clearance ([2]; in vivo, iv, 1 mg/kg) is reported as 5.4 mL/min/kg. For the same compound, the clearance [5] was 3 mL/min/kg.
`O=C(Nc1ccc(N2C(=O)CC3(CCCCC3)C2=O)c(Cl)c1)c1ccccn1` [15j, N-(3-Chloro-4-(1,3-dioxo-2-azaspiro[4.5]decan-2-yl)phenyl)picolinamide] gave a CL ([2]; 1 mg/kg) of 48.3 mL/min/kg, an MRT ([2]; in vivo, iv, 1 mg/kg) of 0.953 h and a clearance ([2]; in vivo, iv, 1 mg/kg) of 48 mL/min/kg.
For `COc1cc(NC(=O)c2ccccn2)ccc1Cl` [compound 2], the “rat CLHEP” value [6] is listed as 65.5 mL/min/kg, the “rPPB (%fu)” value [7] is listed as 2.4 %fu and the “CNS penetration when dosed systemically” value [8] is listed as “CNS penetrant”.
